Experimental data reported in patent EP4650362A1, “NEUROPROTECTIVE PSD-95 POLYPEPTIDE INHIBITOR AND USE THEREOF” (Beijing Tuo Jie Biopharmaceutical Co. Ltd., priority 2023, dated 2024).
Where “and” joins values, the source holds several entries; their conditions need not be identical. Identical values can stand only once. Like-named read-outs stand apart in the source and are kept apart here. Non-standard residues stand in square brackets, D forms with d. Residues, ends and D or L forms follow the SMILES beside them. No end group written: not given here. Tle = CC(C)(C)[C@H](N)C(=O)O; Dab = NCC[C@H](N)C(=O)O; Aib = CC(C)(N)C(=O)O

How the values were obtained:
[1] = plasma stability test, human plasma; assay type: in vitro ADME; details: for Relative remaining compound content (%): 0min (standard 100%)
Method: (§1) Solution preparation: An appropriate amount of a test polypeptide compound was weighed out and dissolved in an appropriate amount of 1× PBS to form a 1 mM test solution. NA-1 and NoNO42 were used as positive drugs, propantheline bromide was used as a human plasma test control, and lovastatin was used as a rat plasma test control. Plasma stability test: 12.5 µL of the 1 mM test solution was added to a 495 µL pre-incubated plasma sample. […] For each incubation time, two parallel samples were set. Subsequently, 200 µL of stop solution was added to stop the incubation, and the mixtures were vortexed for 5 min. Then the mixtures were centrifuged at 10,000 rpm at 4 °C for 10 min to remove the protein in the sample, and 70 µL of the supernatant was transferred to a new 96-well plate (70 µL of water was added to each well beforehand) and well mixed. […] Sample pretreatment: […] LC-MS analysis: […] (2) Mass-spectrometric conditions: The mass spectrometry analysis used an electrospray ionization (ESI) source, a positive ion analysis mode, and a multi-reaction monitoring (MRM) scan mode. […] The plasma stability of the polypeptide compound

[2] = plasma stability test with alteplase added, rat plasma; assay type: in vitro ADME; details: Rat plasma + rt-PA (50 µg/mL alteplase), 25 µM
Method: as §1, with “mixed. Plasma stability test with alteplase added: An appropriate amount of solid alteplase was weighed out, and an appropriate volume of water was added. The mixture was vortexed to dissolve alteplase, forming a 1 mg/mL solution of alteplase. 250 µL of the 1 mg/mL solution of alteplase was added to 4750 µL of plasma to form a plasma sample containing 50 µg/mL alteplase. The other procedures were the same as in the aforementioned "plasma stability test", with the difference being that the plasma sample containing 50 µg/mL alteplase was used instead of plasma.” for “mixed.”

human PSD95-PDZ2 = molecular target: T1, human PSD95-PDZ2 (Homo sapiens, UniProt P78352); experiment: binding ELISA with Biotin-PDZ2
T1 construct: PDZ2 (155-249, the Flag-His-Avitag-TEVsite tag is italicized); made in house; host or cells: E. coli BL21-DE3 (PET vector)
T1 sequence (P78352 155-249): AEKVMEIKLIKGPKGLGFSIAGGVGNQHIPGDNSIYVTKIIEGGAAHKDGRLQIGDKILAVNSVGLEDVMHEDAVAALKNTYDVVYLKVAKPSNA
Excerpt: (§2) The three PDZ domains in the PSD95 protein are structurally similar. Binding to the PDZ1 and PDZ2 domains can effectively block PSD95-mediated neuroexcitotoxicity. However, the biological function of binding to the PDZ3 domain is unclear. Therefore, to avoid potential safety concerns, this test example assessed the selectivity of polypeptide compounds for the PDZ2 and PDZ3 domains, aiming to identify polypeptide compounds that specifically bind to the PDZ2 domain. Site-specifically biotinylated Biotin-PDZ2 and Biotin-PDZ3 proteins were used for binding ELISA assays. […] After the blocking was complete, the blocking solution was discarded, and the plate was washed three times with PBST buffer. […] After the incubation was complete, the reaction solutions in the microplate were discarded, and the plate was washed three times with PBST. 100 µL of HRP-SA secondary antibody (diluted at 1:2000) was added to each well, and the plate was incubated at 37 °C for 1 h. After the plate was washed three times with PBST, 100 µL of TMB chromogenic substrate was added. […] The absorbance at 450 nm was measured using a SpectraMax M5 microplate reader, and the binding EC50 values of the test compounds to Biotin-PDZ2 or Biotin-PDZ3 were calculated using GraphPad Prism 9. […] The abilities of polypeptide compounds to bind to human PSD95-PDZ2 and human PSD95-PDZ3

human PSD95-PDZ3 = molecular target: T2, human PSD95-PDZ3 (Homo sapiens, UniProt P78352); experiment: binding ELISA with Biotin-PDZ3
T2 construct: PDZ3 (309-401, Flag-His-Avitag-TEVsite tag); made in house
T2 sequence (P78352 309-401): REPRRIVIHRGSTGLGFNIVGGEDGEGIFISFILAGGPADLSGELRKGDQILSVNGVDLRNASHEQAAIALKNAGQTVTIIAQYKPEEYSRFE
Excerpt: as §2, with “domain. The expression and purification of PSD95-PDZ3 protein were carried out with reference to the steps in 3.1.2. The amino acid sequence of PDZ3 protein: […]” for “domain.”, “μL” for “µL”

[3] = Human plasma, 25 µM, 10min, read-out: Relative remaining compound content (%)
[4] = Human plasma, 25 µM, 20min, read-out: Relative remaining compound content (%)
[5] = Human plasma, 25 µM, 30min, read-out: Relative remaining compound content (%)
[6] = Human plasma, 25 µM, 60min, read-out: Relative remaining compound content (%)
[7] = Human plasma, 25 µM, 120min, read-out: Relative remaining compound content (%)

Molecule | Relative remaining compound content (%) ([1]; Human plasma, 25 µM) | remaining at 10 min, 25 µM [1, 3] [%] | remaining at 20 min, 25 µM [1, 4] [%] | remaining at 0.5 h, 25 µM [1, 5] [%] | remaining at 1 h, 25 µM [1, 6] [%] | remaining at 2 h, 25 µM [1, 7] [%] | Relative remaining compound content (%) ([2]; 0min (standard 100%)) | Relative remaining compound content (%) ([2]; 10min) | Relative remaining compound content (%) ([2]; 20min) | Relative remaining compound content (%) ([2]; 30min) | Relative remaining compound content (%) ([2]; 60min) | Relative remaining compound content (%) ([2]; 120min) | EC50 (human PSD95-PDZ2) [nM] | EC50 (human PSD95-PDZ3) [mM] | other results
CC(C)[C@H](NC(=O)[C@H](CC(=O)O)NC(=O)[C@@H](NC(=O)[C@@H](NC(=O)[C@@H](NC(=O)[C@@H](NC(=O)[C@H](CCN)NC(=O)C(C)(C)NC(=O)CNC(=O)[C@@H](CCCNC(=N)N)NC(=O)[C@H](CCCNC(=N)N)NC(=O)[C@H](CCCNC(=N)N)NC(=O)[C@H](CCC(N)=O)NC(=O)[C@@H](CCCNC(=N)N)NC(=O)[C@H](CCCNC(=N)N)NC(=O)[C@H](CCCCN)NC(=O)[C@H](CCCCN)NC(=O)[C@H](N)CCCNC(=N)N)[C@@H](C)O)C(C)(C)C)C(C)(C)C)[C@@H](C)O)C(=O)O [Polypeptide compound 22, r-K-K-R-r-Q-R-R-r-G-Aib-Dab-T-Tle-Tle-T-D-V] (H-[dR]KKR[dR]QRR[dR]G[Aib][Dab]T[Tle][Tle]TDV-OH) | 100.0 | 99.5 | 97 | 104 | 98 | 90.1 | 100.0 | 83.4% | 72.2 | 48.2 | 13.7 | 8.1 | – | – | –
YGRKKRRQRRRKLSSIESDV [NA-1, YGRKKRRQR RRKLSSIESDV, reference compound] | 100.0 | 76.4 | 74.9 | 70.6 | 53.9 | 25.1 | 100.0 | 6.3% and 14.0% | 2.2 | 0.8 | – | – | 83 | > 1 | –
CC[C@H](C)[C@H](NC(=O)[C@H](CO)NC(=O)[C@H](CO)NC(=O)[C@H](CC(C)C)NC(=O)[C@@H](CCCCN)NC(=O)[C@H](CCCNC(=N)N)NC(=O)[C@H](CCCNC(=N)N)NC(=O)[C@@H](CCCNC(=N)N)NC(=O)[C@H](CCC(N)=O)NC(=O)[C@@H](CCCNC(=N)N)NC(=O)[C@H](CCCNC(=N)N)NC(=O)[C@H](CCCCN)NC(=O)[C@H](CCCCN)NC(=O)[C@@H](CCCNC(=N)N)NC(=O)CNC(=O)[C@@H](N)Cc1ccc(O)cc1)C(=O)N[C@@H](CCC(=O)O)C(=O)N[C@@H](CO)C(=O)N[C@@H](CC(=O)O)C(=O)N[C@H](C(=O)O)C(C)C [NoNO42, YGrKKRrQrRRkLSSIESDV, reference compound] (H-YG[dR]KKR[dR]Q[dR]RR[dK]LSSIESDV-OH) | – | – | – | – | – | – | – | – | – | – | – | – | 98 | > 1 | remaining at 10 min, 25 µM ([1]; human, plasma): 104%; remaining at 20 min, 25 µM ([1]; human, plasma): 104%; remaining at 0.5 h, 25 µM ([1]; human, plasma): 107%; remaining at 1 h, 25 µM ([1]; human, plasma): 99.3%; remaining at 2 h, 25 µM ([1]; human, plasma): 107%
CC(C)[C@H](NC(=O)[C@H](CC(=O)O)NC(=O)[C@@H](NC(=O)[C@@H](NC(=O)[C@@H](NC(=O)[C@@H](NC(=O)[C@H](CCN)NC(=O)C(C)(C)NC(=O)CNC(=O)[C@@H](CCCNC(=N)N)NC(=O)[C@@H](CCCNC(=N)N)NC(=O)[C@@H](CCCNC(=N)N)NC(=O)[C@@H](CCC(N)=O)NC(=O)[C@@H](CCCNC(=N)N)NC(=O)[C@@H](CCCNC(=N)N)NC(=O)[C@@H](CCCCN)NC(=O)[C@@H](CCCCN)NC(=O)[C@@H](CCCNC(=N)N)NC(=O)CNC(=O)[C@H](N)Cc1ccc(O)cc1)[C@@H](C)O)C(C)(C)C)C(C)(C)C)[C@@H](C)O)C(=O)O [Polypeptide compound 14, y-G-r-k-k-r-r-q-r-r-r-G-Aib-Dab-T-Tle-Tle-T-D-V] (H-[dY]G[dR][dK][dK][dR][dR][dQ][dR][dR][dR]G[Aib][Dab]T[Tle][Tle]TDV-OH) | 100.0 | 102 | 101 | 97.3 | 103 | 105 | 100.0 | 95.6% | 90.4 | 104.9 | 105.4 | 96.7 | – | – | EC50 (human PSD95-PDZ2; plate coated with 2 µM test compound, Biotin-PDZ2 titrated, read-out: EC50 (PDZ2)): 76 nM; EC50 (human PSD95-PDZ3; plate coated with 2 µM test compound, Biotin-PDZ3 titrated, read-out: EC50 (PDZ3)): > 1 mM
